From PMC5842274, “Anti-GD2 Immunoliposomes for Targeted Delivery of the Survivin Inhibitor Sepantronium Bromide (YM155) to Neuroblastoma Tumor Cells” (Pharmaceutical Research, 2018)
Where two headings read alike, the source gives them in different places.

How the values were obtained:
KCNR cells = assay: alamarBlue viability assay; type: cell-based; conditions: 24 h incubation, read-out: IC50 (cell viability)
Protocol: Efficacy of YM155 loaded liposomes (targeted and non-targeted control liposomes) was studied on KCNR by alamarBlue viability assay (Thermo Fischer Scientific), according to the supplier’s instruction. KCNR cells were seeded at 20 × 10^3 cells/well in 96 well Greiner polystyrene plates (Sigma Aldrich) in complete DMEM medium and allowed to adhere overnight. The medium was replaced by cell culture medium supplemented with YM155 or YM155 liposomal formulations at concentrations ranging from 0.8 to 100 nM, after which the cell culture were incubated for 24 h at 37°C. Control experiments included incubations with empty liposomes (i.e. without YM155) at equivalent TL concentrations in the range of 0.08–11 μM TL. After 24 h of incubation, medium was replaced with drug-free medium containing alamarBlue reagent (10 vol%), after which cells were incubated for an extra 3 h at 37°C. Fluorescence was quantified with a microplate reader (Mithras LB940) and used to calculate the relative percentage of living cells normalized against control cells that had not been treated with YM155. IC50 values were calculated by curve fitting using non-linear regression in Graph Pad Prism 6.0.

[1] = Pharmacokinetic pilot study, YM155 in blood/plasma after single i.v. administration; type: in vivo, mice; conditions: for half-life / Vd: 1 mg/kg
Protocol: (§1) Animal experiments were conducted in compliance with the national regulations and have been approved by the local ethical committee for animal experimentation. NMRI nu/nu female mice (25 g, Charles River, Massachusetts, USA) were housed in a temperature-controlled room (approximately 22°C) with 55 to 65% relative humidity, a photoperiod of 12/12 h with free access to water and pelleted rodent food. The mice were challenged with KCNR neuroblastoma (passage 1–2) derived from DAG102776 by serial xenotransplantation in both flanks. When the tumor growth reached the size of approximately 8 × 8 mm, mice were randomly divided in three groups that were injected intravenously with either free YM155 dissolved in HBS (1 mg/kg, n = 11), YM155 loaded anti-GD2-immunoliposomes (3 μmol TL/kg diluted in HBS, equivalent to 1 mg/kg YM155, n = 11), or an equivalent dose of YM155 loaded control liposomes (n = 11). At designated time points (i.e. 5 min, 9 min, 15 min, 30 min, 1 h, 4 h, 8 h, 24 h, 48 h and 72 h), blood samples (approximately 0.5 ml per sampling time point) were collected in tubes containing EDTA as anticoagulant and mice were sacrificed. Blood samples and excised tumors were stored at −80°C until analysis of their YM155 concentration by liquid chromatography-tandem mass spectrometry (LC-MS/MS) ([34]).
(§2) Pharmacokinetic analysis of the in-vivo data was performed using the Pk Solver 2.0 add-in template for Microsoft Excel, as described previously ([35]). Pharmacokinetic parameters were determined by non-compartmental analysis (NCA) using linear-logarithmic trapezoidal model fitting, or by compartmental analysis (CA) using 1-compartment model fitting.

[2] = Tumor accumulation of YM155 in subcutaneous KCNR tumor xenografts; type: in vivo, mice; conditions: single i.v. 1 mg/kg
Protocol: as §1, with “At designated time points (i.e. 5 min, 9 min, 15 min, 30 min, 1 h, 4 h, 8 h, 24 h, 48 h and 72 h), blood samples (approximately 0.5 ml per sampling time point) were collected in tubes containing EDTA as anticoagulant and mice were sacrificed. Blood samples and excised tumors were stored at −80°C until analysis of their YM155 concentration by liquid chromatography-tandem mass spectrometry (LC-MS/MS) ([34]).” left out
as §2

[3] = Table I, no reference given; cited from earlier work
neuroblastoma cell lines = conditions: most neuroblastoma cell lines; Table I, no reference given; cited from earlier work
[4] = cited from earlier work

AUC(0-inf) ([1]; female, NMRI nu/nu, mouse, iv, single i.v. 1 mg/kg, NCA, blood/plasma): 136 ng·h/mL
half-life ([1]; female, NMRI nu/nu, mouse, plasma, iv, single i.v. 1 mg/kg YM155, female mice with KCNR xenografts, non-compartmental analysis, read-out: t1/2 (NCA) (converted)): 24 min
Vd ([1]; female, NMRI nu/nu, mouse, plasma, iv, single i.v. 1 mg/kg, NCA, read-out: Vss): 2.47 L/kg
Vd ([1]; female, NMRI nu/nu, mouse, plasma, iv, single i.v. 1 mg/kg, NCA, read-out: Vz): 4.65 L/kg
half-life ([1]; female, NMRI nu/nu, mouse, plasma, iv, single i.v. 1 mg/kg, compartmental analysis, 1-compartment model, read-out: CA t1/2 (converted)): 12 min
clearance ([1]; female, NMRI nu/nu, mouse, plasma, iv, single i.v. 1 mg/kg, NCA): 122 mL/min/kg
MRT inf ([1]; female, NMRI nu/nu, mouse, plasma, iv, single i.v. 1 mg/kg, NCA, read-out: MRT0-∞): 20.4 min
Time plasma levels were detectable post administration ([1]; single i.v. 1 mg/kg): about 8 h
Time intratumor levels of YM155 could be detected post injection [2]: up to 24 h
SMILES: COCCn1c2c([n+](Cc3cnccn3)c1C)C(=O)c1ccccc1C2=O [YM155, Sepantronium bromide]
IC50 (KCNR cells): 27 nM
LogP [3]: −3.7
Solubility in water [3]: At least 0,5 mg/ml
pKa [3]: 5.3
IC50 (neuroblastoma cell lines): Low nM range for most neuroblastoma cell lines
Previously reported half-life [4]: ~ 1 h
Plasma half-life ([4]; mice and rats): 60 to 120 min
